# BindingDB's records for doi:10.1021/jm040037k (Abbott Laboratories, 2004)
# Square brackets hold non-standard residues; d marks the D form. Peptide text beside a SMILES is read from it. * marks the point of attachment. Tle = CC(C)(C)[C@H](N)C(=O)O; NMeA = CN[C@@H](C)C(=O)O; βNA = c1ccc2cc(N*)ccc2c1
# Target: T1, E3 ubiquitin-protein ligase XIAP [241-356] (Homo sapiens, UniProt P98170)
# T1 construct: 241-356
# Test: Ligand Binding Assay
# Details: pH 7.4; 22 °C
# Description: A fluorescence polarization anisotropy (FPA) competition assay was used to determine the affinities of compounds to BIR3 protein. Fluorescence polarization measurements were carried out on an Analyst 96-well plate reader. 6-Carboxyfluorescein (FAM) labeled peptides with the sequences AVPIAQK (FAM)-NH2 was used as a probe. Dissociation constants were determined from titration curves with in-house written software.
# T1 sequence (P98170 241-356): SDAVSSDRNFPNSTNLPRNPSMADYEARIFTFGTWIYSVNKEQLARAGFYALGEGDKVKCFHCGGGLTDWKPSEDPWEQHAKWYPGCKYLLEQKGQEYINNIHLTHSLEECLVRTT
row,Structure (SMILES),Kd [nM]
1,"C[C@@H](C(=O)N[C@H](C(=O)N1CCC[C@H]1C(=O)N[C@@H]1CCCc2ccccc21)C(C)(C)C)N(C)C [(2S)-1-[(2S)-2-[(2S)-2-(dimethylamino)propanamido]-3,3-dimethylbutanoyl]-N-[(1R)-1,2,3,4-tetrahydronaphthalen-1-yl]pyrrolidine-2-carboxamide]",> 1000
2,"C[C@@H](C(=O)N[C@H](C(=O)N1CCC[C@H]1C(=O)N[C@@H]1CCCc2ccccc21)C1CCCCC1)N(C)C [(2S)-1-[(2S)-2-cyclohexyl-2-[(2S)-2-(dimethylamino)propanamido]acetyl]-N-[(1R)-1,2,3,4-tetrahydronaphthalen-1-yl]pyrrolidine-2-carboxamide]",> 1000
3,"CN[C@@H](C)C(=O)N[C@H](C(=O)N1CCC[C@H]1C(=O)Nc1ccc2ccccc2c1)C(C)(C)C [(2S)-1-[(2S)-3,3-dimethyl-2-[(2S)-2-(methylamino)propanamido]butanoyl]-N-(naphthalen-2-yl)pyrrolidine-2-carboxamide] (H-[NMeA]-[Tle]-Pro-βNA)",> 1000
4,"CN[C@@H](C)C(=O)N[C@H](C(=O)N1CCC[C@H]1C(=O)N[C@@H]1CCc2ccccc21)C(C)(C)C [(2S)-N-[(1R)-2,3-dihydro-1H-inden-1-yl]-1-[(2S)-3,3-dimethyl-2-[(2S)-2-(methylamino)propanamido]butanoyl]pyrrolidine-2-carboxamide]",29
5,"C[C@@H](C(=O)N[C@H](C(=O)N1C[C@@H](Oc2ccccc2)C[C@H]1C(=O)N[C@@H]1CCCc2ccccc21)C(C)(C)C)N(C)C [(2S,4S)-1-[(2S)-2-[(2S)-2-(dimethylamino)propanamido]-3,3-dimethylbutanoyl]-4-phenoxy-N-[(1R)-1,2,3,4-tetrahydronaphthalen-1-yl]pyrrolidine-2-carboxamide]",> 1000
6,CN[C@@H](C)C(=O)N[C@H](C(=O)N1CCC[C@H]1C(=O)N[C@H]1CCc2ccccc21)C(C)(C)C [H-N-Me-Ala-Tle-Pro-(S)-indan-1-yl Amide],> 1000
7,CN[C@@H](C)C(=O)N[C@H](C(=O)N1CCC[C@H]1C(=O)NC1c2ccccc2-c2ccccc21)C(C)(C)C [H-N-Me-Ala-Tle-Pro-fluoren-9-yl Amide],47
8,CN[C@@H](C)C(=O)N[C@H](C(=O)N1CCC[C@H]1C(=O)Nc1cccc2ccccc12)C(C)(C)C [H-N-Me-Ala-Tle-Pro-naphth-1-yl Amide],> 500
